Our source for the IC50 values is patent US7541368B2, “Pyrazoles as inhibitors of tumor necrosis factor” (Aventis Pharmaceuticals Inc., priority 2003, dated 2009).

The assay relates to TNF-alpha release in THP-1 cells. The assay can be described thus: LPS-induced TNF-alpha release in THP-1 cells. The assay is classed as cell-based. The conditions noted are these: Homo sapiens, THP-1, LPS-stimulated THP-1 cells; read-out: 50% inhibition in the LPS-induced TNF-alpha release in THP-1 cells assay at concentrations within the range. On the procedure:
The effects of compounds on TNF-alpha production by lipopolysaccharide (LPS)-stimulated […] monocytes were examined as follows.
Undifferentiated THP-1 cells were maintained in RPMI 1640 with Glutamax I containing β-mercaptoethananol (50 μM) and foetal calf serum (FCS-10%) at densities of about 1×10^6 cells per ml. For incubations without and with test reagents, cells were seeded at the indicated densities under serum-deprived (1% FCS) conditions. Compounds were dissolved in dimethylsulfoxide (DMSO-100%) and incubated with the cells to give a fmal DMSO concentration of 0.3%. Control and untreated cell samples were incubated with DMSO (0.3%).
THP-1 cells (1×10 ^6 cells/ml, total volume 150 μl) in culture medium were incubated for 1 hour (5% CO2, 37° C.) with fresh medium containing compounds or vehicle (0.1-0.3% dimethylsulfoxide). LPS (20 μg/ml) was then added to the cells and the incubation continued for a fuirther 18 hours. Cell supernatants were removed into 96 well plates for storage at −20° C.
TNF-alpha concentrations in cell supernatants were quantified by sandwich ELISA. Briefly, ELISA plates were coated overnight with 2 μg/ml of mouse anti-human TNF-alpha antibody in bicarbonate buffer (pH 9.9). After washing the wells with wash buffer (0.05% (v/v) Tween in PBS)and blocking unoccupied sites (1% BSA in wash buffer), monocyte supernatant samples or human recombinant TNF-alpha standards were added into the corresponding wells of the ELISA plate at 1:10 dilution. Biotinylated rabbit polyclonal anti-human TNF-alpha antibody (3 μg/ml) was used as the second antibody and streptavidin-horseradish peroxidase was used as the detection antibody. The peroxidase substrate is 3,3′,5,5′-tetramethylbenzidine (TMB) in the presence of hydrogen peroxide.
TNFα concentrations in supernatants from control and LPS-stimulated monocyte incubations were calculated by interpolation from a standard (log/log) curve (0.125-16 ng/ml) fitted by Excel Fit using the Activity Base software. Compounds were tested within the concentration range of 1×10^−9M to 1×10^−6M.

With `COc1cccc(C(=O)N2CCC(Cc3cccc(NC(=O)Nc4cc(C(C)(C)C)nn4-c4ccc(C)cc4)c3)CC2)c1OC` [Compound A21, 1-(5-tert-Butyl-2-p-tolyl-2H-pyrazol-3-yl)-3-{3-[1-(2,3-dimethoxy-benzoyl)-piperidin-4-ylmethyl]-phenyl}-urea], the IC50 was in the range of 10 to 500 nM.

For `CCS(=O)(=O)N1CCC(Cc2ccc(NC(=O)Nc3cc(C(C)(C)C)nn3-c3ccc(C)cc3)cc2)CC1` [Compound A606, 1-(5-tert-Butyl-2-p-tolyl-2H-pyrazol-3-yl)-3-[4-(1-ethanesulfonyl-piperidin-4-ylmethyl)-phenyl]-urea], the IC50 was 10 to 500 nM.

As to `Cc1ccc(-n2nc(C(C)(C)C)cc2NC(=O)Nc2ccc(CC3CCN(C(=O)c4ccc(-c5cnco5)cc4)CC3)cc2)cc1` [Compound A301, 1-(5-tert-Butyl-2-p-tolyl-2H-pyrazol-3-yl)-3-{4-[1-(4-oxazol-5-yl-benzoyl)-piperidin-4-ylmethyl]-phenyl}-urea], the IC50 fell in the range of 10 to 500 nM.

With `Cc1ccc(-n2nc(C(C)(C)C)cc2NC(=O)Nc2ccc(CC3CCN(C(=O)c4csc(-c5ccncc5)n4)CC3)cc2)cc1` [Compound A227, 1-(5-tert-Butyl-2-p-tolyl-2H-pyrazol-3-yl)-3-{4-[1-(2-pyridin-4-yl-thiazole-4-carbonyl)-piperidin-4-ylmethyl]-phenyl}-urea], the IC50 lay in the range of 10 to 500 nM.

Consider `CC(=O)c1ccc(NC(=O)N2CCC(Cc3cccc(NC(=O)Nc4cc(C(C)(C)C)nn4-c4ccc(C)cc4)c3)CC2)cc1` [Compound A403, 4-{3-[3-(5-tert-Butyl-2-p-tolyl-2H-pyrazol-3-yl)-ureido]-benzyl}-piperidine-1-carboxylic acid (4-acetyl-phenyl)-amide], for which the IC50 was in the range of 10 to 500 nM.

As to `COc1ccc(CC(=O)N2CCC(Cc3cccc(NC(=O)Nc4cc(C(C)(C)C)nn4-c4ccc(C)cc4)c3)CC2)cc1OC` [Compound A69, 1-(5-tert-Butyl-2-p-tolyl-2H-pyrazol-3-yl)-3-(3-{1-[2-(3,4-dimethoxy-phenyl)-acetyl]-piperidin-4-ylmethyl}-phenyl)-urea], the IC50 fell in the range of 10 to 500 nM.

As for `Cc1ccc(-n2nc(C(C)(C)C)cc2NC(=O)Nc2ccc(CC3CCN(C(=O)c4ccc5cc[nH]c5c4)CC3)cc2)cc1` [Compound A362, 1-(5-tert-Butyl-2-p-tolyl-2H-pyrazol-3-yl)-3-{4-[1-(1H-indole-6-carbonyl)-piperidin-4-ylmethyl]-phenyl}-urea], the IC50 was in the range of 10 to 500 nM.

Turning to `Cc1ccc(-n2nc(C(C)(C)C)cc2NC(=O)Nc2cccc(CC3CCN(C(=O)c4ccnc5ccccc45)CC3)c2)cc1` [Compound A186, 1-(5-tert-Butyl-2-p-tolyl-2H-pyrazol-3-yl)-3-{3-[1-(quinoline-4-carbonyl)-piperidin-4-ylmethyl]-phenyl}-urea], the IC50 lay within 10 to 500 nM.

As for `COc1ccc(C)cc1S(=O)(=O)N1CCC(Cc2ccc(NC(=O)Nc3cc(C(C)(C)C)nn3-c3ccc(C)cc3)cc2)CC1` [Compound A592, 1-(5-tert-Butyl-2-p-tolyl-2H-pyrazol-3-yl)-3-{4-[1-(2-methoxy-5-methyl-benzenesulfonyl)-piperidin-4-ylmethyl]-phenyl}-urea], the IC50 fell in the range of 10 to 500 nM.

With `Cc1ccc(-n2nc(C(C)(C)C)cc2NC(=O)Nc2ccc(CC3CCN(C(=O)c4cccnc4C)CC3)cc2)cc1` [Compound A251, 1-(5-tert-Butyl-2-p-tolyl-2H-pyrazol-3-yl)-3-{4-[1-(2-methyl-pyridine-3-carbonyl)-piperidin-4-ylmethyl]-phenyl}-urea], the IC50 lay within 10 to 500 nM.

On to `Cc1ccc(-n2nc(C(C)(C)C)cc2NC(=O)Nc2cccc(CC3CCN(C(=O)Cc4ccc(F)cc4F)CC3)c2)cc1` [Compound A26, 1-(5-tert-Butyl-2-p-tolyl-2H-pyrazol-3-yl)-3-(3-{1-[2-(2,4-difluoro-phenyl)-acetyl]-piperidin-4-ylmethyl}-phenyl)-urea], for which the IC50 lay within 10 to 500 nM.

As to `Cc1ccc(-n2nc(C(C)(C)C)cc2NC(=O)Nc2cccc(CC3CCN(C(=O)c4cc(C)oc4C)CC3)c2)cc1` [Compound A29, 1-(5-tert-Butyl-2-p-tolyl-2H-pyrazol-3-yl)-3-{3-[1-(2,5-dimethyl-furan-3-carbonyl)-piperidin-4-ylmethyl]-phenyl}-urea], the IC50 is 10 to 500 nM.

On to `Cc1ccc(-n2nc(C(C)(C)C)cc2NC(=O)Nc2cccc(CC3CCN(C(=O)c4coc5c4C(=O)CCC5)CC3)c2)cc1` [Compound A154, 1-(5-tert-Butyl-2-p-tolyl-2H-pyrazol-3-yl)-3-{3-[1-(4-oxo-4,5,6,7-tetrahydro-benzofuran-3-carbonyl)-piperidin-4-ylmethyl]-phenyl}-urea], for which the IC50 is 10 to 500 nM.

Consider `COc1ccc(C(=O)N2CCC(Cc3ccc(NC(=O)Nc4cc(C(C)(C)C)nn4-c4ccc(C)cc4)cc3)CC2)cc1OC` [Compound A261, 1-(5-tert-Butyl-2-p-tolyl-2H-pyrazol-3-yl)-3-{4-[1-(3,4-dimethoxy-benzoyl)-piperidin-4-ylmethyl]-phenyl}-urea], for which the IC50 lay within 10 to 500 nM.

As to `COc1ccc2c(CC(=O)N3C4CCC3CC(Cc3cccc(NC(=O)Nc5cc(C(C)(C)C)nn5-c5ccc(C)cc5)c3)C4)coc2c1` (stereo not shown) [Compound A618, 1-(5-tert-Butyl-2-p-tolyl-2H-pyrazol-3-yl)-3-(3-{8-[2-(6-methoxy-benzofuran-3-yl)-acetyl]-8-aza-bicyclo[3.2.1]oct-3-ylmethyl}-phenyl)-urea], the IC50 lay within 10 to 500 nM.

Regarding `COc1cc(OC)cc(C(=O)N2CCC(Cc3ccc(NC(=O)Nc4cc(C(C)(C)C)nn4-c4ccc(C)cc4)cc3)CC2)c1` [Compound A266, 1-(5-tert-Butyl-2-p-tolyl-2H-pyrazol-3-yl)-3-{4-[1-(3,5-dimethoxy-benzoyl)-piperidin-4-ylmethyl]-phenyl}-urea], the IC50 lay within 10 to 500 nM.

`Cc1ccc(-n2nc(C(C)(C)C)cc2NC(=O)Nc2cccc(CC3CCN(C(=O)c4cnccn4)CC3)c2)cc1` [Compound A64, 1-(5-tert-Butyl-2-p-tolyl-2H-pyrazol-3-yl)-3-{3-[1-(pyrazine-2-carbonyl)-piperidin-4-ylmethyl]-phenyl}-urea]: the IC50 is 10 to 500 nM.

`Cc1ccc(-n2nc(C(C)(C)C)cc2NC(=O)Nc2ccc(CC3CCN(C(=O)Cc4cccs4)CC3)cc2)cc1` [Compound A388, 1-(5-tert-Butyl-2-p-tolyl-2H-pyrazol-3-yl)-3-{4-[1-(2-thiophen-2-yl-acetyl)-piperidin-4-ylmethyl]-phenyl}-urea]: the IC50 lay in the range of 10 to 500 nM.

`Cc1ccc(-n2nc(C(C)(C)C)cc2NC(=O)Nc2cccc(CC3CCN(C(=O)c4ccc(S(C)(=O)=O)cc4Cl)CC3)c2)cc1` [Compound A40, 1-(5-tert-Butyl-2-p-tolyl-2H-pyrazol-3-yl)-3-{3-[1-(2-chloro-4-methanesulfonyl-benzoyl)-piperidin-4-ylmethyl]-phenyl}-urea]: the IC50 is 10 to 500 nM.

As to `CCCC(=O)N1CCC(Cc2ccc(NC(=O)Nc3cc(C(C)(C)C)nn3-c3ccc(C)cc3)cc2)CC1` [Compound A343, 1-(5-tert-Butyl-2-p-tolyl-2H-pyrazol-3-yl)-3-[4-(1-butyryl-piperidin-4-ylmethyl)-phenyl]-urea], the IC50 fell in the range of 10 to 500 nM.

Consider `Cc1ccc(-n2nc(C(C)(C)C)cc2NC(=O)Nc2cccc(CC3CCN(C(=O)c4csnn4)CC3)c2)cc1` [Compound A6, 1-(5-tert-Butyl-2-p-tolyl-2H-pyrazol-3-yl)-3-{3-[1-([1,2,3]thiadiazole-4-carbonyl)-piperidin-4-ylmethyl]-phenyl}-urea], for which the IC50 is 10 to 500 nM.

For the compound `Cc1ccc(-n2nc(C(C)(C)C)cc2NC(=O)Nc2cccc(CC3CCN(C(=O)C4=Cc5sccc5CC4)CC3)c2)cc1` [Compound A102, 1-(5-tert-Butyl-2-p-tolyl-2H-pyrazol-3-yl)-3-{3-[1-(4,5-dihydro-benzo[b]thiophene-6-carbonyl)-piperidin-4-ylmethyl]-phenyl}-urea], the IC50 was 10 to 500 nM.

Turning to `Cc1ccc(-n2nc(C(C)(C)C)cc2NC(=O)Nc2ccc(CC3CCN(C(=O)c4cc(C)oc4C)CC3)cc2)cc1` [Compound A222, 1-(5-tert-Butyl-2-p-tolyl-2H-pyrazol-3-yl)-3-{4-[1-(2,5-dimethyl-furan-3-carbonyl)-piperidin-4-ylmethyl]-phenyl}-urea], the IC50 fell in the range of 10 to 500 nM.

`Cc1ccc(-n2nc(C(C)(C)C)cc2NC(=O)Nc2ccc(CC3CCN(C(=O)c4ccoc4)CC3)cc2)cc1` [Compound A286, 1-(5-tert-Butyl-2-p-tolyl-2H-pyrazol-3-yl)-3-{4-[1-(furan-3-carbonyl)-piperidin-4-ylmethyl]-phenyl}-urea]: the IC50 fell in the range of 10 to 500 nM.

For the compound `Cc1ccc(-n2nc(C(C)(C)C)cc2NC(=O)Nc2cccc(CC3CCN(C(=O)CCc4cccs4)CC3)c2)cc1` [Compound A83, 1-(5-tert-Butyl-2-p-tolyl-2H-pyrazol-3-yl)-3-{3-[1-(3-thiophen-2-yl-propionyl)-piperidin-4-ylmethyl]-phenyl}-urea], the IC50 was in the range of 10 to 500 nM.
